18 compounds from US20230064983A1 (priority 2020, published 2023) can be followed below.

Molecules are shown by their SMILES. Values joined by “and” are separate entries in the source; they are usually repeats but may differ in a detail not shown here. Equal values may be shown once.

The target in assay [1] is T1, EGFR with insertion SVD between D770 and N771 (mutEGFR D770_N771insSVD) (Homo sapiens, UniProt P00533, DUP768-770).
T1 construct: amino acids R669 to A1210; made in house; host or cells: Sf9 insect cells (baculovirus)
T1 sequence (P00533 other isoform, or with tags, fused parts or gaps DUP768-770): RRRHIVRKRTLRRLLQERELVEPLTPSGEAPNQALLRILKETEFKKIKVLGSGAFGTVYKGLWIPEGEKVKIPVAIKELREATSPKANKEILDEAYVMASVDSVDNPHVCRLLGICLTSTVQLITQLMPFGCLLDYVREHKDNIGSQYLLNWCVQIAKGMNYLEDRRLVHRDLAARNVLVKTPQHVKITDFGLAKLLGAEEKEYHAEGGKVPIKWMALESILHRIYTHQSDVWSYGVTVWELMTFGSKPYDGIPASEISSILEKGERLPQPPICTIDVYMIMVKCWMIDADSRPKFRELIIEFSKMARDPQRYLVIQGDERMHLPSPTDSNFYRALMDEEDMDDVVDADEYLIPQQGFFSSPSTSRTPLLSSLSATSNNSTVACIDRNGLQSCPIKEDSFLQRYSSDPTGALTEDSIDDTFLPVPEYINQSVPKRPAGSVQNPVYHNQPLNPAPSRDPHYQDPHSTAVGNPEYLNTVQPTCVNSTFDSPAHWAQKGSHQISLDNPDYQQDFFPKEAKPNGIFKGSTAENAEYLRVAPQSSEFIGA
Put plainly: Exon20-Mutant-EGFR(D770_N771insSVD) kinase assay (TR-FRET). It is filed as biochemical. The note with it: 2 mM ATP, Table 2.

In assay [2] the target is T2, Bub1 (Homo sapiens, UniProt O43683).
T2 construct: catalytic domain of human Bub1 (amino acids 704-1085); His6 (N); made in house; host or cells: insect cells (Hi5)
T2 sequence (O43683 704-1085): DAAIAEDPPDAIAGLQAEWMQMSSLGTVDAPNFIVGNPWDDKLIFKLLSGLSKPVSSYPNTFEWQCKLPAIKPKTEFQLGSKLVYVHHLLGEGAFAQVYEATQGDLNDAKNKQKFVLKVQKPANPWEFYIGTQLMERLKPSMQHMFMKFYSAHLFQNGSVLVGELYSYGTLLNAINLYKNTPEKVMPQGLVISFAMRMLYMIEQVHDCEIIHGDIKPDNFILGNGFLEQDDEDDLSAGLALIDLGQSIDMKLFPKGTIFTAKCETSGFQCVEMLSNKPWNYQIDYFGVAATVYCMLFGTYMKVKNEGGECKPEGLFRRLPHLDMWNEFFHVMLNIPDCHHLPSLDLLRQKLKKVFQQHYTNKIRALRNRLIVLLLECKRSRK
Put plainly: Bub1 high ATP kinase assay (TR-FRET). The note with it: Bub1 high ATP (2 mM) IC50, TR-FRET, 2 mM ATP; Table 3. It is filed as biochemical. From the text:
Bub1 high ATP Kinase Assay
Bub1-inhibitory activity of compounds of the present invention at a high ATP concentration was quantified employing the Bub1 TR-FRET high ATP kinase assay as described in the following paragraphs.
N-terminally His6-tagged recombinant catalytic domain of human Bub1 (amino acids 704-1085), expressed in insect cells (Hi5) and purified by Ni-NTA affinity chromatography and subsequent size exclusion chromatography, was used as enzyme. As substrate for the kinase reaction the biotinylated peptide biotin-Ahx-[…] (C-terminus in amid form) was used which can be purchased e.g. form the company Biosyntan (Berlin, Germany).
Then the kinase reaction was started by the addition of 2 μl of a solution of Bub1 in assay buffer and the resulting mixture was incubated for a reaction time of 60 min at 22° C. The concentration of Bub1 was adjusted depending of the activity of the enzyme lot and was chosen appropriate to have the assay in the linear range, a typical concentration is about 200 ng/ml. The reaction was stopped by the addition of 3 μl of a solution of TR-FRET detection reagents (0.167 μM streptavidine-XL665 [Cisbio Bioassays, Codolet, France] and 1.67 nM anti-phosho-Serine antibody [Merck Millipore, cat. #35-002] and 0.67 nM LANCE EU-W1024 labeled anti-mouse IgG antibody [Perkin-Elmer, product no. AD0077, as an alternative a Terbium-cryptate-labeled anti-mouse IgG antibody from Cisbio Bioassays can be used]) in an aqueous EDTA-solution (83.3 mM EDTA, 0.2% (w/v) bovine serum albumin in 100 mM HEPES pH 7.5).
The resulting mixture was incubated 1 h at 22° C. to allow the formation of complex between the phosphorylated biotinylated peptide and the detection reagents. Subsequently the amount of phosphorylated substrate was evaluated by measurement of the resonance energy transfer from the Eu-chelate to the streptavidine-XL. Therefore, the fluorescence emissions at 620 nm and 665 nm after excitation at 350 nm was measured in a TR-FRET reader, e.g. a Pherastar or Pherastar FS (both from BMG Labtechnologies, Offenburg, Germany) or a Viewlux (Perkin-Elmer). The ratio of the emissions at 665 nm and at 622 nm was taken as the measure for the amount of phosphorylated substrate.

For assay [3], the target named is Ba/F3-EGFR-D770_N771insSVD cells (Homo sapiens, UniProt P00533, DUP768-770, cells depend on it). The assay is described as follows: Ba/F3 cell survival assay, EGFR D770_N771insSVD. It is filed as cell-based. The following applies: Cell Titer-Glo, 48 h, without IL-3; Table 4; read-out: BA/F3 (insSVD) IC50.
Ba/F3-EGFR-D770_N771insSVD cells, sequence (P00533 with tags, fused parts or gaps DUP768-770): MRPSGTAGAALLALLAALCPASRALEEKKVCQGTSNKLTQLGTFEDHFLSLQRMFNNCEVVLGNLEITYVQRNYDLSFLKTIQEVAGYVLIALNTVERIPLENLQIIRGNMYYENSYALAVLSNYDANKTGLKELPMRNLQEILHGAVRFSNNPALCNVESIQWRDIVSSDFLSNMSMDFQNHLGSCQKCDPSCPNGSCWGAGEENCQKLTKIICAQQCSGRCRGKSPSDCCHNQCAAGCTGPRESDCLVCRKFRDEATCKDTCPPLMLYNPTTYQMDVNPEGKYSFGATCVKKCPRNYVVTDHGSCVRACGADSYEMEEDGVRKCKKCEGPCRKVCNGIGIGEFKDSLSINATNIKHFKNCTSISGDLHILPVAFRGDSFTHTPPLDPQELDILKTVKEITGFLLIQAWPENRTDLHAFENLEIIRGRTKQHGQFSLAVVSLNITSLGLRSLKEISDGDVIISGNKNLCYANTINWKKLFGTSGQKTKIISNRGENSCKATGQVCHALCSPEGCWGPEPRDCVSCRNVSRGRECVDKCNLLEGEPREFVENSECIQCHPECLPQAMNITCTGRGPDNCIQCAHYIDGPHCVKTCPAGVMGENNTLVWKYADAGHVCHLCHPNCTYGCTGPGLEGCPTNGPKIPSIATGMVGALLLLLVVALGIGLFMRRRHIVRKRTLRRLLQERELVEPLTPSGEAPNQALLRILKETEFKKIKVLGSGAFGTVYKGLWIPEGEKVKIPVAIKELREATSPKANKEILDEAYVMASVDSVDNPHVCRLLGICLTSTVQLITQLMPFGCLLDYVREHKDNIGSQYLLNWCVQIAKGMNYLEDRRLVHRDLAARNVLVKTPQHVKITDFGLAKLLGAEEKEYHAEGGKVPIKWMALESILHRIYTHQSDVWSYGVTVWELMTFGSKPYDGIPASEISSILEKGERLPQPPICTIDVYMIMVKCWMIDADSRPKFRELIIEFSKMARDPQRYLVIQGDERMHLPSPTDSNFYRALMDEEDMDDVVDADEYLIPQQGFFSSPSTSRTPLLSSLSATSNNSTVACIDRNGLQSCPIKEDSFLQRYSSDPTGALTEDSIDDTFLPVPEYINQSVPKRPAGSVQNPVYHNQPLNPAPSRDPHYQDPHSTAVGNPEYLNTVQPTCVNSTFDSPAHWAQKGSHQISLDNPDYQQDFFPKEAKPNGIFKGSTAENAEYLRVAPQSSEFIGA
Assay [4] deals with Ba/F3-EGFR-WT cells (Homo sapiens, UniProt P00533). The assay is described as follows: Ba/F3 cell survival assay, wild type EGFR. It is filed as cell-based. The note with it: Cell Titer-Glo, 48 h, with 10 ng/mL EGF; Table 4; read-out: BA/F3 (wild type) IC50.
Ba/F3-EGFR-WT cells, sequence (P00533 whole entry, looked up, change not shown): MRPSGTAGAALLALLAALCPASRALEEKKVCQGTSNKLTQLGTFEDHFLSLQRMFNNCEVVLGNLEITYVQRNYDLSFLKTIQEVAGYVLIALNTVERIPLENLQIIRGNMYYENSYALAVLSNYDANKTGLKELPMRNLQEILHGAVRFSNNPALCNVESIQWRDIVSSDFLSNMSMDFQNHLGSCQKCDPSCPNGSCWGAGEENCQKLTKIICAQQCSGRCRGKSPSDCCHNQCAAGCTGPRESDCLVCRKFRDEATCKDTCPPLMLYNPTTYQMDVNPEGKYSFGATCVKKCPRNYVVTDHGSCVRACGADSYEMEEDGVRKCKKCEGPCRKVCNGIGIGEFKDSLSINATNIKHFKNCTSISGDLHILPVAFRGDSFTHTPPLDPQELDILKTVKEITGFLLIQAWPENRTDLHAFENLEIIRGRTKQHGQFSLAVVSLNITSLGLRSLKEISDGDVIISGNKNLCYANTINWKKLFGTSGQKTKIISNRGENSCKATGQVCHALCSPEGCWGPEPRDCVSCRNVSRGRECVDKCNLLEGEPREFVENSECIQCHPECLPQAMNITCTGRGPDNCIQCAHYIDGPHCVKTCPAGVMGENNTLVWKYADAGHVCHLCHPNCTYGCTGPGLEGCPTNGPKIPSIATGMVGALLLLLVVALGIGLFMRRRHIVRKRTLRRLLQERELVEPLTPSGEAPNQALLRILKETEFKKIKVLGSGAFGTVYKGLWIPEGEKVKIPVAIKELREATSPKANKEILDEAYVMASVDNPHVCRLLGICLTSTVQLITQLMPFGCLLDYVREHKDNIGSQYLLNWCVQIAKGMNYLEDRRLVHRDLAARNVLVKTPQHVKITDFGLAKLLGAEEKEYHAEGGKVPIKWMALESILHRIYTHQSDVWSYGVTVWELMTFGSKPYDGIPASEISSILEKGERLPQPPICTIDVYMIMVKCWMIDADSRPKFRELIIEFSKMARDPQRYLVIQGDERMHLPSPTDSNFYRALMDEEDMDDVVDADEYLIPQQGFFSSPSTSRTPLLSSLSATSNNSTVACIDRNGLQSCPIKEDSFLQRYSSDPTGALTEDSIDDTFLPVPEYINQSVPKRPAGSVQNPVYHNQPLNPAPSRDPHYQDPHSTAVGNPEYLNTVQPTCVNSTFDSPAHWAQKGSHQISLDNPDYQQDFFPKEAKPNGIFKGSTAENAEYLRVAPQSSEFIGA

`COc1c(Cl)cccc1Nc1c(-c2ccncc2OCC(C)OC)[nH]c2c1C(=O)N[C@H](C)C2` (mixture of isomers) [Example 80, (6R)-3-(3-chloro-2-methoxy-anilino)-2-[3-(2-methoxypropoxy)-4-pyridyl]-6-methyl-1,5,6,7-tetrahydropyrrolo[3,2-c]pyridin-4-one]: in assay [1], the “mutEGFR (D770_N771insSVD) kinase assay IC50” value (“mutEGFR” for short) is 0.131 nM. This compound also registered an IC50 in assay [2] of 2670 nM. The values for the GI50 in assay [3] and in assay [4] were 19.9 nM and 628 nM, respectively.

With `COc1c(Cl)cccc1Nc1c(-c2ccncc2OCC2CCCCN2C)[nH]c2c1C(=O)N[C@H](C)C2` (mixture of isomers) [Example 83, (6R)-3-(3-chloro-2-methoxy-anilino)-6-methyl-2-{3-[(1-methyl-2-piperidyl)methoxy]-4-pyridyl}-1,5,6,7-tetrahydropyrrolo[3,2-c]pyridin-4-one], in assay [1], the “mutEGFR” value was determined as 0.849 nM. In assay [2], the IC50 was > 20000 nM. Also, the GI50 in assay [3] was 24.6 nM; in assay [4], 669 nM.

Turning to `COc1c(Cl)cccc1Nc1c(-c2ccncc2OCCC(C)OC)[nH]c2c1C(=O)N[C@H](C)C2` (mixture of isomers) [Example 120, (6R)-3-(3-chloro-2-methoxy-anilino)-2-[3-(3-methoxybutoxy)-4-pyridyl]-6-methyl-1,5,6,7-tetrahydropyrrolo[3,2-c]pyridin-4-one], the “mutEGFR” value in assay [1] was determined as 0.0901 nM. This compound also displayed a concentration for half-maximal inhibition (IC50) in assay [2] of 1480 nM. The GI50 in assay [3] was 31.1 nM; in assay [4] it was 358 nM.

Turning to `COc1c(Cl)cccc1Nc1c(-c2ccncc2OC[C@@H]2CCCO2)[nH]c2c1C(=O)N[C@@H](C)C2` (single isomer, unassigned) [Example 4], the “mutEGFR” value in assay [1] came to 0.113 nM. In addition, the IC50 in assay [2] was 3010 nM. Further, the GI50 in assay [3] was 95.3 nM; in assay [4], 883 nM.

Regarding `COc1c(Cl)cccc1Nc1c(-c2ccncc2OC[C@@H]2CCCO2)[nH]c2c1C(=O)N[C@H](C)C2` (single isomer, unassigned) [Example 5], in assay [1], the “mutEGFR” value came out at 0.125 nM. The same compound showed an IC50 in assay [2] of 9700 nM. Moreover, the values for the GI50 in assay [3] and in assay [4] were 20.2 nM and 331 nM, respectively.

Consider `COc1c(F)cccc1Nc1c(-c2ccncc2OC[C@@H]2CCCO2)[nH]c2c1C(=O)NC(C)C2` (single isomer, unassigned) [Example 9], for which, in assay [1], the “mutEGFR” value is 0.101 nM. This compound also came in with an IC50 in assay [2] of 8240 nM. In addition, the GI50 in assay [3] was 104 nM; in assay [4], 644 nM.

Turning to `COc1c(F)cccc1Nc1c(-c2ccncc2OC[C@@H]2CCCO2)[nH]c2c1C(=O)NC(C)C2` (single isomer, unassigned) [Example 10], the “mutEGFR” value in assay [1] amounted to 0.0957 nM. Further, the IC50 in assay [2] was > 20000 nM. In addition, the results for the GI50 in assay [3] and in assay [4] were 31.7 nM and 382 nM, respectively.

On to `COc1c(Cl)cccc1Nc1c(-c2ccncc2OCC(C)(C)OC)[nH]c2c1C(=O)NCC2CCO` (single isomer, unassigned) [Example 14, 3-(3-chloro-2-methoxyanilino)-7-(2-hydroxyethyl)-2-[3-(2-methoxy-2-methylpropoxy)pyridin-4-yl]-1,5,6,7-tetrahydro-4H-pyrrolo[3,2-c]pyridin-4-one], for which, in assay [1], the “mutEGFR” value was found to be 0.139 nM. The same compound showed an IC50 in assay [2] of 5390 nM. For the same compound, the figures for the GI50 in assay [3] and in assay [4] were 21 nM and 262 nM, respectively.

Regarding `COc1c(Cl)cccc1Nc1c(-c2ccncc2OCC(C)(C)OC)[nH]c2c1C(=O)NCC2CCO` (single isomer, unassigned) [Example 15, 3-(3-chloro-2-methoxyanilino)-7-(2-hydroxyethyl)-2-[3-(2-methoxy-2-methylpropoxy)pyridin-4-yl]-1,5,6,7-tetrahydro-4H-pyrrolo[3,2-c]pyridin-4-one], the “mutEGFR” value in assay [1] stood at 0.158 nM. In assay [2], this compound returned an IC50 of 1390 nM. Also, the GI50 was found to be 192 nM in assay [3] and 895 nM in assay [4].

For `COc1c(Cl)cccc1Nc1c(-c2ccncc2OC[C@@H]2CCCO2)[nH]c2c1C(=O)NCC2CCO` (single isomer, unassigned) [Example 17], the “mutEGFR” value in assay [1] stood at 0.238 nM. The IC50 in assay [2] is > 20000 nM. In addition, the GI50 in assay [3] is 230 nM; in assay [4] it was 1580 nM.

Consider `COc1c(Cl)cccc1Nc1c(-c2ccncc2OC[C@@H]2CCCO2)[nH]c2c1C(=O)NCC2CCO` (single isomer, unassigned) [Example 18], for which the “mutEGFR” value in assay [1] amounted to 0.113 nM. The IC50 in assay [2] is 19200 nM and > 20000 nM. For the same compound, the GI50 in assay [3] is 26.4 nM; in assay [4], 362 nM.

Take `COc1c(Cl)cccc1Nc1c(-c2ccncc2OCC2(C)CCO2)[nH]c2c1C(=O)NCC2CCO` (single isomer, unassigned) [Example 20, 3-(3-chloro-2-methoxyanilino)-7-(2-hydroxyethyl)-2-{3-[(2-methyloxetan-2-yl)methoxy]pyridin-4-yl}-1,5,6,7-tetrahydro-4H-pyrrolo[3,2-c]pyridin-4-one]: the “mutEGFR” value in assay [1] amounted to 0.316 nM. Also, in assay [2], the IC50 was 17200 nM. The GI50 came out at 122 nM in assay [3] and 1170 nM in assay [4].

On to `COc1c(Cl)cccc1Nc1c(-c2ccncc2OCC2(C)CCO2)[nH]c2c1C(=O)NCC2CCO` (single isomer, unassigned) [Example 21, 3-(3-chloro-2-methoxyanilino)-7-(2-hydroxyethyl)-2-{3-[(2-methyloxetan-2-yl)methoxy]pyridin-4-yl}-1,5,6,7-tetrahydro-4H-pyrrolo[3,2-c]pyridin-4-one], for which, in assay [1], the “mutEGFR” value was 0.473 nM. Moreover, the 50% inhibitory concentration (IC50) in assay [2] is > 20000 nM. Moreover, the GI50 in assay [3] amounted to 67.9 nM; in assay [4], 943 nM.

Consider `COc1c(Cl)cccc1Nc1c(-c2ccncc2OCC2(C)CCO2)[nH]c2c1C(=O)NCC2CCO` (single isomer, unassigned) [Example 22, 3-(3-chloro-2-methoxyanilino)-7-(2-hydroxyethyl)-2-{3-[(2-methyloxetan-2-yl)methoxy]pyridin-4-yl}-1,5,6,7-tetrahydro-4H-pyrrolo[3,2-c]pyridin-4-one], for which the “mutEGFR” value in assay [1] stood at 0.66 nM. For the same compound, inhibition in assay [2] was half-maximal at 11600 nM (IC50). Besides, the GI50 in assay [3] is 616 nM; in assay [4], 2630 nM.

Take `COc1c(Cl)cccc1Nc1c(-c2ccncc2OCC2(C)CCO2)[nH]c2c1C(=O)NCC2CCO` (single isomer, unassigned) [Example 23, 3-(3-chloro-2-methoxyanilino)-7-(2-hydroxyethyl)-2-{3-[(2-methyloxetan-2-yl)methoxy]pyridin-4-yl}-1,5,6,7-tetrahydro-4H-pyrrolo[3,2-c]pyridin-4-one]: the “mutEGFR” value in assay [1] is 0.796 nM. Besides, in assay [2], the half-maximal inhibitory concentration (IC50) was > 20000 nM. In addition, the GI50 in assay [3] came to 920 nM; in assay [4], 7380 nM.

For `COc1c(Cl)cccc1Nc1c(-c2ccncc2OCC2COCCO2)[nH]c2c1C(=O)N[C@H](C)C2` (single isomer, unassigned) [Example 25], the “mutEGFR” value in assay [1] was 0.141 nM. Moreover, the half-maximal inhibitory concentration (IC50) in assay [2] stood at 5410 nM. In addition, the GI50 was 25.9 nM in assay [3] and 358 nM in assay [4].

With `COc1c(Cl)cccc1Nc1c(-c2ccncc2OCC2COCCO2)[nH]c2c1C(=O)N[C@H](C)C2` (single isomer, unassigned) [Example 26], the “mutEGFR” value in assay [1] is 0.242 nM. Besides, in assay [2], the 50% inhibitory concentration (IC50) was determined as 3110 nM. Also, the GI50 was determined as 63.1 nM in assay [3] and 587 nM in assay [4].

In the case of `COc1c(Cl)cccc1Nc1c(-c2ccncc2OCC2CCCCO2)[nH]c2c1C(=O)N[C@H](C)C2` (single isomer, unassigned) [Example 28], the “mutEGFR” value in assay [1] is 0.139 nM. Further, the IC50 in assay [2] was found to be 9720 nM. Further, the GI50 was 8.33 nM in assay [3] and 189 nM in assay [4].
